Experimental data reported in patent US20260053861A1, “CELL COMPOSITIONS AND METHODS OF USING THE SAME” (THE REGENTS OF THE UNIVERSITY OF CALIFORNIA, priority 2022, published 2026).
Structures can show the parent of a compound that is named as a salt.

The compounds below were run on hPSC-SCs. Conditions: not given.

Going from COc1ccc2c(c1)[C@]13CCCC[C@@H]1[C@H](C2)N(C)CC3 to COc1ccc2c(c1OC)CN1CCc3cc4c(cc3C1C2)OCO4 (stereo not shown) [(d,l)-Tetrahydroberberine], the z.score.t rises from 1.28 to 2.041.

Going from COc1cc2c(cc1OC)C(C)NCC2.Cl (stereo not shown) to COc1ccc(CC2c3cc(OC)c(OC)cc3CCN2C)cc1OC (racemic) [Laudanosine (R,S)], the z.score.t falls from 0.3024 to −0.3319.

Going from CN1CCc2cccc3c2[C@H]1Cc1ccc(O)c(O)c1-3.CN1CCc2cccc3c2[C@H]1Cc1ccc(O)c(O)c1-3.Cl.Cl.O to CN1CCC2(C)c3cc(O)ccc3N(C)C12.O=C(O)/C=C/C(=O)O (single isomer, unassigned; (-)) [(−)-Eseroline fumarate salt], the z.score.t rises from −1.904 to −1.336.

First: CN(N=O)C(=O)N[C@H]1C(O)O[C@H](CO)[C@@H](O)[C@@H]1O (mixture of isomers) [Streptozotocin]
Second: Nc1ncnc2c1ncn2[C@@H]1O[C@H](COP(=O)(O)O)[C@@H](O)[C@H]1O.O [Adenosine 5′-monophosphate monohydrate]
The z.score.t of the first is lower: 0.03421 for the first, 1.049 for the second.

Compared with Cl.NCC(O)c1ccc(O)cc1 (racemic) [(+, −)-Octopamine hydrochloride], CNCC(O)c1ccc(O)cc1 (racemic) [(+, −)-Synephrine] is lower in z.score.t: 0.6574 for the first, −0.2329 for the second.

First: O=C(O)C1CCCNC1 (racemic) [(ñ)-Nipecotic acid]
Second: Nc1c2c(nc3ccccc13)CCCC2O.O=C(O)/C=C\C(=O)O (racemic) [Hydroxytacrine maleate (R,S)]
The z.score.t of the first is lower: −0.7376 for the first, 0.713 for the second.

First: NCC(CC(=O)O)c1ccc(Cl)cc1 (racemic) [Baclofen (R,S)]
Second: CCN1C[C@]2(COC)[C@H](O)C[C@H](OC)[C@@]34[C@@H]5C[C@@]6(O)[C@H](OC(=O)c7ccccc7)[C@@H]5[C@@](OC(C)=O)([C@@H]([C@H](OC)[C@H]23)[C@@H]14)[C@@H](O)[C@@H]6OC [Aconitine]
The z.score.t of the first is higher: 1.088 for the first, −0.2486 for the second.

Compared with CC(=O)NC1CCSC1=O (racemic) [N-Acetyl-DL-homocysteine Thiolactone], CN1C2CC(=O)CC1C(O)C2 (stereo not shown) [6-Hydroxytropinone] is lower in z.score.t: 0.0116 for the first, −0.3867 for the second.

Compared with CC(=C(CCO)SSCC1CCCO1)N(C=O)Cc1cnc(C)nc1N (stereo in doubt) [Fursultiamine Hydrochloride], C[C@]12CCC(=O)C=C1CC[C@@H]1[C@@H]2C(=O)C[C@]2(C)C(=O)CC[C@@H]12 [Adrenosterone] is lower in z.score.t: 1.483 for the first, 1.101 for the second.

C[C@]12CC[C@@H](O)C[C@H]1CC[C@@H]1[C@@H]2CC[C@]2(C)C(=O)CC[C@@H]12 [3-alpha-Hydroxy-5-beta-androstan-17-one] was tested, and the z.score.t was −0.1014.

Same assay, conditions: HTS viability of hPSC-SCs in the presence of 30 mM glucose; Prestwick library; Table S4

Compared with Cc1ccc(Cl)c(Nc2ccccc2C(=O)O)c1Cl, O=C(O)COC(=O)Cc1ccccc1Nc1c(Cl)cccc1Cl [Aceclofenac] is higher in z.score.t: −1.427 for the first, 0.08508 for the second.

First: CC(C)NCC(O)c1cc(O)cc(O)c1.CC(C)NCC(O)c1cc(O)cc(O)c1.O=S(=O)(O)O (stereo not shown)
Second: CC(C)NC[C@@H](O)c1ccc(O)c(O)c1.O=C(O)C(O)C(O)C(=O)O [(+)-Isoproterenol (+)-bitartrate salt]
The z.score.t of the first is higher: 0.4451 for the first, 0.1019 for the second.

First: O=C(O)Cc1cc(I)c(Oc2ccc(O)c(I)c2)c(I)c1
Second: COc1ccc(-c2cc(=O)c3c(O)cc(O)cc3o2)cc1 [Acacetin]
The z.score.t of the first is higher: 0.4486 for the first, −0.03362 for the second.

First: CN(Cc1cnc2nc(N)nc(N)c2n1)c1ccc(C(=O)N[C@@H](CCC(=O)O)C(=O)O)cc1 (racemic) [Amethopterin (R,S)]
Second: COc1ccc2c(c1)c(CC(=O)OCC(=O)O)c(C)n2C(=O)c1ccc(Cl)cc1 [Acemetacin]
The z.score.t of the first is higher: 0.3845 for the first, −1.873 for the second.

Compared with CC(=O)NC(CC(=O)O)C(=O)O (racemic) [Aspartic acid, N-acetyl (R,S)], CC(=O)NC1[C@@H](O)OC(CO)[C@@H](O)[C@H]1O[C@H](C)C(=O)O (stereo in doubt) [Muramic acid, N-acetyl] is higher in z.score.t: 0.006455 for the first, 1.616 for the second.

First: O.Oc1cc(O)c2c(c1)OC(c1ccc(O)c(O)c1)C(O)C2 (racemic) [Catechin-(+, −) hydrate]
Second: CC(C)NCC(O)c1ccc(O)c(O)c1.Cl (single isomer, unassigned; (-)) [(−)-Isoproterenol hydrochloride]
The z.score.t of the first is higher: 0.2361 for the first, −0.1043 for the second.

Compared with OCC(O)CN1CCN(c2ccccc2)CC1 (racemic) [Dropropizine (R,S)], C=C[C@H]1CN2CC[C@H]1C[C@H]2[C@H](O)c1ccnc2ccccc12 [(−)-Cinchonidine] is higher in z.score.t: 0.7162 for the first, 1.595 for the second.

Compared with COCCc1ccc(OCC(O)CNC(C)C)cc1.COCCc1ccc(OCC(O)CNC(C)C)cc1.O=C(O)C(O)C(O)C(=O)O (racemic) [Metoprolol-(+, −) (+)-tartrate salt], CC(C)NC[C@@H](O)COc1ccc(CC(N)=O)cc1 [(R)-(+)-Atenolol] is lower in z.score.t: 1.223 for the first, −0.9395 for the second.

Compared with Nc1ccccc1S(N)(=O)=O [2-Aminobenzenesulfonamide], CC(=O)c1cc2ccccc2oc1=O [3-Acetylcoumarin] is lower in z.score.t: 1.43 for the first, −0.7757 for the second.

First: Clc1cnccn1 [2-Chloropyrazine]
Second: c1coc(CNc2ncnc3nc[nH]c23)c1 [6-Furfurylaminopurine]
The z.score.t of the first is higher: 0.2112 for the first, −0.7183 for the second.

First: CC(=O)Nc1cc2ccccc2oc1=O [3-Acetamidocoumarin]
Second: CC(=O)CC(c1ccc([N+](=O)[O-])cc1)c1c(O)c2ccccc2oc1=O (stereo not shown) [Acenocoumarol]
The z.score.t of the first is lower: −1.551 for the first, −0.2425 for the second.

Going from CC(C)(C)NC[C@@H](O)COc1cccc2c1CCCC2=O.Cl [(+) -Levobunolol hydrochloride] to CC(C)(C)NC[C@H](O)COc1cccc2c1CCCC2=O.Cl [(−) -Levobunolol hydrochloride], the z.score.t falls from 1.281 to 0.8283.

First: COc1ccc2cc([C@@H](C)C(=O)[O-])ccc2c1.[Na+] [(R) -Naproxen sodium salt]
Second: CC(C)NC[C@@H](O)COc1cccc2ccccc12.Cl [(R)-Propranolol hydrochloride]
The z.score.t of the first is lower: −0.3895 for the first, −0.04682 for the second.

First: N[C@H]1CONC1=O [(S)-(−)-Cycloserine]
Second: Nc1nc2c(ncn2COCCO)c(=O)[nH]1 [Acyclovir]
The z.score.t of the first is lower: −0.3729 for the first, 0.2916 for the second.

Going from CCCC(=O)Nc1ccc(OCC(O)CNC(C)C)c(C(C)=O)c1 (stereo not shown) [Acebutolol hydrochloride] to CC(=O)c1ccc2c(c1)N(CCCN(C)C)c1ccccc1S2.O=C(O)/C=C\C(=O)O [Acetopromazine maleate salt], the z.score.t falls from 0.3206 to 0.1979.

Compared with CC(=O)Nc1ccc(O)cc1 [Acetaminophen], CC(=O)c1ccc(S(=O)(=O)NC(=O)NC2CCCCC2)cc1 [Acetohexamide] is higher in z.score.t: −0.3023 for the first, 0.5856 for the second.

Going from CC(=O)Nc1nnc(S(N)(=O)=O)s1 [Acetazolamide] to CC(=O)Oc1ccccc1C(=O)Oc1ccccc1C(=O)O [Acetylsalicylsalicylic acid], the z.score.t falls from 0.8639 to 0.3922.

Compared with NC12CC3CC(CC(C3)C1)C2.NC12CC3CC(CC(C3)C1)C2.O=C(O)/C=C/C(=O)O [Adamantamine fumarate], CCN(CC)CCOC(=O)C(c1ccccc1)c1ccccc1 [Adiphenine hydrochloride] is lower in z.score.t: −0.4942 for the first, −0.765 for the second.
